Assay results reported in patent EP0595557A1, “New substituted azetidinones as anti-inflammatory and antidegenerative agents” (MERCK & CO. INC., priority 1992, dated 1994).

Target: T1, Human Polymorphonuclear Leukocyte Elastase (Homo sapiens, UniProt P08246)
T1 construct: Crude extract of human polymorphonuclear leukocytes (PMN) containing elastase activity; from tissue; host or cells: human polymorphonuclear leukocytes (crude extract)
T1 sequence (P08246 30-267): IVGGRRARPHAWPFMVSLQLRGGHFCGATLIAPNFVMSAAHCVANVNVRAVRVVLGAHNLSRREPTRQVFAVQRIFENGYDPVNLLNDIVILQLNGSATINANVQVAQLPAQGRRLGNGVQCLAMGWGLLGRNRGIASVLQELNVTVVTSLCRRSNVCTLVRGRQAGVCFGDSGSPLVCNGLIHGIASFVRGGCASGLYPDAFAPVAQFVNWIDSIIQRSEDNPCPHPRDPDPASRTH
Test: Enzyme assay for inhibition of human polymorphonuclear leukocyte elastase via hydrolysis of Boc-AAPAN or Boc-AAPVN
Assay type: biochemical
Conditions: pH 7.5, second order rate constant for inactivation of the enzyme, expressed to the nearest thousand, read-out: Kobs/[I]
Method: Enzyme Assays for the Inhibition of Human Polymorphonuclear Leukocyte Elastase Via Hydrolysis of N-t-Boc-alanyl-alanyl-prolylalanine-p-nitroanilide (Boc-AAPAN) or N-t-Boc-alanyl-prolylvaline-p-nitro-anilide (Boc-AAPVN) Reagent:
0.05M TES (N-tris[hydroxymethyl]methyl-2-mino-ethanesulfonic acid) Buffer, pH 7.5.
0.2 mM Boc-AAPAN or Boc-AAPVN.
To prepare substrate, the solid was first dissolved in 10.0 ml DMSO. Buffer at pH 7.5 was then added to a final volume of 100 ml.
Crude extract of human polymorphonuclear leukocytes (PMN) containing elastase activity.
Inhibitors (azetidinones) to be tested dissolved in DMSO just before use.
To 1.0 ml of 0.2 mM Boc-AAPAN in a cuvette, 0.01-0.1 ml of DMSO with or without inhibitor was added. After mixing, a measurement was taken at 410 mµ to detect any spontaneous hydrolysis due to presence of test compound. 0.05 Milliliters of PMN extract was then added and the ΔOD/min at 410 mµ was measured and recorded. Beckman model 35 spectrophotometer was used.
Results were expressed to the nearest thousand ^kobs/I which is the second order rate constant in per mole per second for inactivation of the enzyme.
The elastase activity in the crude PMN extract may vary from one preparation to another. A control of each new batch is run, and the volume added in the assay procedure is adjusted according to activity.

Compound | kinact/KI [M⁻¹ s⁻¹]
CCC[C@@H](NC(=O)N1C(=O)C(CC)(CC)[C@@H]1Oc1ccc(C(=O)OCC(=O)N(C)C)cc1)c1ccc(C)cc1 (relative stereo) [Compound 6, 2-(dimethylamino)-2-oxoethyl, (S-(R*,S*))-4-((3,3-Diethyl-1-(((1-(4-methyl-phenyl)butyl)amino)carbonyl)-4-oxo-2-azetidinyl)oxy)-benzoate] | 3e+06
CCC[C@@H](NC(=O)N1C(=O)C(CC)(CC)[C@@H]1Oc1ccc(C(=O)OCC(=O)N2CCC[C@H]2C(=O)O)cc1)c1ccc(C)cc1 (relative stereo) [Compound 9, (S(R*,S*))-1-(((4-((3,3-diethyl-1-(((1-(4-methylphenyl)butyl)amino)carbonyl)-4-oxo-2-azetidinyl)oxy)benzoyl)oxy)acetyl) L-proline] | 1.57e+06
CCC[C@@H](NC(=O)N1C(=O)C(CC)(CC)[C@@H]1Oc1ccc(C(=O)O[C@@H](C)C(=O)OCc2ccccc2)cc1)c1ccc(C)cc1 (relative stereo) [Compound 10, 1-Methyl-2-oxo-2-(phenylmethoxy)ethyl(2S-(1(S*),R*,(R)))-4-((3,3-diethyl-1-(((1-(4-methylphenyl)butyl)amino)carbonyl)-4-oxo-2-azetidinyl)oxy) benzoate] | 2.89e+06
CCC[C@@H](NC(=O)N1C(=O)C(CC)(CC)[C@@H]1Oc1ccc(C(=O)N2CCN(C3CC3)CC2)cc1)c1ccc(C)cc1 (relative stereo) [Compound 256, [S(R*,S*)]-2-[4-[[(4-Cyclopropyl)piperazin-1-yl]carbonyl]phenoxy]-((3,3-diethyl-N-[1-(4-methylphenyl)butyl]-4-oxo-1-azetidinecarboxamide] | 3.59e+06
CCCC(NC(=O)N1C(=O)C(CC)(CC)C1Oc1ccc(C(=O)OCC(=O)O)cc1)c1ccc(C)cc1 (stereo not drawn) [Compound 2, Carboxymethyl [S-(R*,S*)]4-((3,3-diethyl-1-(((1-(4-methyl-phenyl)butyl)amino)carbonyl)-4-oxo-2-azetidinyl)oxy)benzoate] | 1.67e+06
CCCC(NC(=O)N1C(=O)C(CC)(CC)C1Oc1ccc(C(=O)OCC(=O)N(CCO)CCO)cc1)c1ccc(C)cc1 (stereo not drawn) [Compound 3, 2-(bis(2-hydroxyethyl)amino)-2-oxoethyl(S-(R*,S*))-4-((3,3-diethyl-1-(((1-(4-methyl-phenyl)butyl)amino)carbonyl)-4-oxo-2-azetidinyl)oxy) benzoate] | 3.43e+06
CCC[C@@H](NC(=O)N1C(=O)C(CC)(CC)[C@@H]1Oc1ccc(C(=O)OCC(=O)N(C)CC(N)=O)cc1)c1ccc(C)cc1 [Compound 4] | 4.29e+06
CCC[C@@H](NC(=O)N1C(=O)C(CC)(CC)[C@@H]1Oc1ccc(C(=O)OCC(=O)NC(CO)(CO)CO)cc1)c1ccc(C)cc1 [Compound 5] | 4.45e+06
CCC[C@@H](NC(=O)N1C(=O)C(CC)(CC)[C@@H]1Oc1ccc(C(=O)OCC(=O)N2CCC[C@H]2C(=O)OCc2ccccc2)cc1)c1ccc(C)cc1 [Compound 8] | 1.25e+07
CCC[C@@H](NC(=O)N1C(=O)C(CC)(CC)[C@@H]1Oc1ccc(C(=O)O[C@@H](C)C(=O)O)cc1)c1ccc(C)cc1 [Compound 11, 1-carboxy-ethyl [S-(R*,S*)]4-((3,3-diethyl-1-(((1-(4-methylphenyl)butyl)amino)carbonyl)-4-oxo-2-azetidinyl)oxy) benzoate] | 1.13e+06
CCC[C@@H](NC(=O)N1C(=O)C(CC)(CC)[C@@H]1Oc1ccc(C(=O)O[C@@H](C)C(=O)N(CC)CC)cc1)c1ccc(C)cc1 [Compound 12, 2-(diethylamino)-1-methyl-2-oxoethyl[S-(R*,S*)]-4-((3,3-diethyl-1-(((1-(4-methyl-phenyl)butyl)amino)carbonyl)-4-oxo-2-azetidinyl)oxy) benzoate] | 2.82e+06
CCC[C@@H](NC(=O)N1C(=O)C(CC)(CC)[C@@H]1Oc1ccc(C(=O)OCCN2CCOCC2)cc1)c1ccc(C)cc1 [Compound 17, 2-(1-[4-morpholino]ethyl) [S-(R*,S*)]-4-[[3,3-diethyl-1-[[[1-(4-methyl-phenyl)butyl]amino]carbonyl]-4-oxo-2-azetidinyl]oxy]benzoate] | 4.73e+06
CCC[C@@H](NC(=O)N1C(=O)C(CC)(CC)[C@@H]1Oc1ccc(C(=O)OCC(=O)N2CCC[C@H]2C(=O)NCc2ccccc2)cc1)c1ccc(C)cc1 [Compound 19, [S-(R*,S*)] 1-(((4-((3,3-diethyl-1-(((1-(4-methylphenyl)butyl)amino)carbonyl-4-oxo-2-azetidinyl)oxy)benzoyl)oxy)acetyl-N-benzyl-L-prolinamide] | 4.96e+06

Next, values leading:

kinact/KI [M⁻¹ s⁻¹] | Compound
1.56e+06 | CCC[C@@H](NC(=O)N1C(=O)C(CC)(CC)[C@@H]1Oc1ccc(C(=O)OCCN(C)C(C)=O)cc1)c1ccc(C)cc1 (relative stereo) [Compound 7, 2-(N-methylacetamido)ethyl. {2-(R*,S*)}-4-{{3,3-Diethyl-1-{{{1-(4-methyl-phenyl)butyl}amino}carbonyl}-4-oxo-2-azetidinyl}oxy}-benzoate]
563000 | CCC[C@@H](NC(=O)N1C(=O)C(CC)(CC)[C@@H]1Oc1cc(C)c(C(=O)OCCN(C)C)c(C)c1)c1ccc(C)cc1 (relative stereo) [Compound 304, 2-(dimethylamino)ethyl [S,(R*,S*)]-4-[[3,3-diethyl-1-[[[1-(4-methylphenyl)butyl]amino]carbonyl]-4-oxo-2-azetidinyl]oxy]-2,6-dimethyl-benzoate]
1.57e+06 | CCCC(NC(=O)N1C(=O)C(CC)(CC)C1Oc1ccc(C(=O)OCCN(C)C)cc1)c1ccc(C)cc1 (stereo not drawn) [Compound 1, 2-(dimethylamino)ethyl (S-(R*,S*))-4-((3,3-diethyl-1-(((1-(4-methyl-phenyl)butyl)amino)carbonyl)-4-oxo-2-azetidinyl)oxy)benzoate]
2.47e+06 | CCC[C@@H](NC(=O)N1C(=O)C(CC)(CC)[C@@H]1Oc1ccc(C(=O)OC(C)CN(C)C)cc1)c1ccc(C)cc1 (stereo partly drawn) [Compound 13, 1-Dimethylamino-2-propyl [S-(R*,S*)]-4-[[3,3-diethyl-1-[[[1-(4-methyl-phenyl)butyl]amino]carbonyl]-4-oxo-2-azetidinyl]oxy]benzoate]
2.86e+06 | CCC[C@@H](NC(=O)N1C(=O)C(CC)(CC)[C@@H]1Oc1ccc(C(=O)OCCCN(C)C)cc1)c1ccc(C)cc1 [Compound 14, 3-Dimethylamino-1-propyl [S-(R*,S*)]-4-[[3,3-diethyl-1-[[[1-(4-methyl-phenyl)butyl]amino]carbonyl]-4-oxo-2-azetidinyl]oxy]benzoate]
2.16e+06 | CCC[C@@H](NC(=O)N1C(=O)C(CC)(CC)[C@@H]1Oc1ccc(C(=O)OCC[N+](C)(C)[O-])cc1)c1ccc(C)cc1 [Compound 15]
2.29e+06 | CCC[C@@H](NC(=O)N1C(=O)C(CC)(CC)[C@@H]1Oc1ccc(C(=O)OCCN(CC)CC)cc1)c1ccc(C)cc1 [Compound 16, 2-Diethylaminoethyl [S-(R*,S*)]-4-[[3,3-diethyl-1-[[[1-(4-methyl-phenyl)butyl]amino]carbonyl]-4-oxo-2-azetidinyl]oxy]benzoate]
1.93e+06 | CCC[C@@H](NC(=O)N1C(=O)C(CC)(CC)[C@@H]1Oc1ccc(C(=O)OCCCCN(C)C)cc1)c1ccc(C)cc1 [Compound 18, 4-dimethylaminobutyl [S-(R*,S*)]-4-[[3,3-diethyl-1-[[[1-(4-methyl-phenyl)butyl]amino]carbonyl]-4-oxo-2-azetidinyl]oxy]benzoate]
